In patent publication US20240392383A1, “Cancer biomarkers for susceptibility to treatment by almitrine” (priority 2021, published 2024):
Read-outs that look alike come from different tables or passages of the source.

How the values were obtained:
CML [1] = assay: Anti-CML activity; assay type: cell-based; conditions: almitrine (or salt, solvate, hydrate, prodrug) and imatinib/dasatinib/nilotinib/radotinib/bosutinib/ponatinib; anticipated by the teaching of this disclosure
AML cells = conditions: cited from earlier work
CML [2] = conditions: cited from earlier work
[3] = reason for not being suitable for in vivo use [18]; cited from earlier work
MYC/Max = MYC/Max (Homo sapiens, UniProt P01106); conditions: cited from earlier work
Chain of MYC/Max (P01106 whole entry): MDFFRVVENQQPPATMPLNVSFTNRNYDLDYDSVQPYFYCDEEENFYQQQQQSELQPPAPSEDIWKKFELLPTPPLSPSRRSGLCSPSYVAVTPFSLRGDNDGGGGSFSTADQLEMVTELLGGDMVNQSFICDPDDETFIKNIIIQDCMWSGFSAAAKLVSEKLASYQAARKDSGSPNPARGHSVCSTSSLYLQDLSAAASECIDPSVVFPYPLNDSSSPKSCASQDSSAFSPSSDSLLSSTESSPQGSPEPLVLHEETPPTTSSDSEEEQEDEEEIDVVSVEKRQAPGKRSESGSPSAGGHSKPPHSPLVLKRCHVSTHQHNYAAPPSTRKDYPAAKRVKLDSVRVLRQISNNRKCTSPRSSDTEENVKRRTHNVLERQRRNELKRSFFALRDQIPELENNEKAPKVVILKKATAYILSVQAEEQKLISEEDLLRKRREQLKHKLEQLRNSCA

NCI-60 = NCI-60 testing; comparators e.g. carboplatin; reported in previous applications WO2019/012149A1; cited from earlier work
[4] = cited from earlier work
NCI-60 cancer cell lines = assay: CellMiner gene expression correlated with growth inhibition (%) at 10 μM (mean of NCI 1-dose and 5-dose protocols); assay type: cell-based, human
Text: Correlations first found using NCI COMPARE, with the aforementioned method, were then further corroborated using cancer gene expression data sourced from the CellMiner database. Indeed, the following NCI 1-dose and 5-dose anti-cancer data for almitrine dimesylate, with serial codes given that will be used to refer to each hereafter, was compared with cancer gene expression data sourced from CellMiner:
The CellMiner database includes five independent Human Genome gene expression data sets {accession numbers: GSE5949, GSE5720, GSE32474, GSE29682, GSE29288}, each of which can have multiple different transcript sequence probes for a single gene, wherein the mean expression for each gene was taken: within and across the different databases, which is distinct from NCI COMPARE where all expressions of different sequence transcripts for a gene were kept distinct without any averaging, and where there was no averaging across gene expression data sets, each was kept distinct. Although actually only four of these gene expression data sets in CellMiner were used to generate the mean for each gene expression: the single gene expression data set that used an Agilent instead of an Affymetrix microarray chip (GSE29288) was excluded from the mean because, to quote the CellMiner documentation: “Agilent probe(s) values are removed from cell line average intensity calculation due to normalization inconsistency with Affymetrix probesets”. […] So, the data set sourced from an Agilent microarray chip was not incorporated in the mean, but was instead used by itself separately for an independent verification. With much less data, the Agilent set is much less reliable than the mean of the 4 Affymetrix microarray data sets, but it is a nice independent adjudicator. This Agilent data set is not one of the six gene expression data sets at NCI COMPARE. By contrast, there is some overlap in the 4 CellMiner gene expression databases that were used for the mean and the 6 that were used with NCI COMPARE (some might be the same). […] Also, distinctly with the 4 Affymetrix microarray data sets in CellMiner, the mean expression for each gene was taken: averaging the expression of all the different sequence transcripts, across all the 4 used Affymetrix microarray data sets, for each gene. Moreover, this mean is very heavily weighted to a database that CellMiner has, and NCI COMPARE definitely doesn't, Accession number: GSE29682, because it tends to have many more probes for each gene than any other data set, indeed often more than all the others combined, each of which is an additional data point in the mean for each gene. […]

[5] = intravenous 459±155 mg almitrine dimesylate infused within 24 hours [16], cited from earlier work

C=CCNc1nc(NCC=C)nc(N2CCN(C(c3ccc(F)cc3)c3ccc(F)cc3)CC2)n1 [almitrine]
Anti-CML activity in combination (CML [1]): synergistic anti-CML activity

CCc1ccc(/C=C2/SC(=S)NC2=O)cc1 [10058-F4]
Drug resistance of leukemic cells (AML cells; AML, Myc inhibition [39]): can overcome drug resistance | Differentiation of AML cells (AML cells; [42]): causes AML cells to differentiate | Apoptosis of AML cells (AML cells; at higher concentrations [42]): induces their apoptosis | Anti-cancer activity in combination (CML [2]; 10058-F4 and imatinib [26]): synergistic anti-cancer activity | Anti-CML activity (CML [2]; [26]): exerts anti-CML activity | Degradation [3]: fast degradation | MYC/Max heterodimerization (MYC/Max; [18]): does disrupt MYC/Max heterodimerization | Affinity for target (MYC/Max; target MYC [18]): low affinity for target

C=CCNc1nc(NCC=C)nc(N2CCN(C(c3ccc(F)cc3)c3ccc(F)cc3)CC2)n1 [almitrine dimesylate]
Anti-cancer activity compared with present cancer drugs (NCI-60): greater anti-cancer activity than many present cancer drugs | Side-effects in humans compared with present cancer drugs ([4]; humans): less, close to no, side-effects | Reversibility of side-effects ([4]; if side-effects occur [2]): reversible upon stopping the course in nearly all cases | Side-effects ([4]; patients taking it daily for <11 months): no side-effects in nearly every patient | Side-effects ([4]; patients taking it daily for >11 months to years [2]): side-effects in a very small minority of the many patients | Anti-cancer activity vs SCAF11 minus RAPH1 gene expression (FIG. 1A bottom panel) (NCI-60 cancer cell lines; SCAF11 gene expression minus RAPH1 gene expression, CellMiner data): greater against cancers with greater value of SCAF11 gene expression minus RAPH1 gene expression | Susceptibility to anti-cancer activity vs MYC oncogene expression (FIG. 1C) (NCI-60 cancer cell lines; gene MYC, CellMiner data): the more likely it is susceptible | Anti-cancer activity vs RAPH1 gene expression (FIG. 1A middle panel) (NCI-60 cancer cell lines; gene RAPH1, CellMiner Affymetrix, Agilent and RNA-seq data): less against cancers with greater gene expression of RAPH1 | Anti-cancer activity vs SCAF11 gene expression (FIG. 1A upper panel) (NCI-60 cancer cell lines; gene SCAF11, CellMiner Affymetrix, Agilent and RNA-seq data): greater against cancers with greater gene expression of SCAF11 | Adverse effect ([5]; subjects with normal liver function): without any adverse effect | Blood [lactate] ([5]; subjects with poor/impaired liver function): can potentially increase blood [lactate]
